Usually EC50 stands for the concentration giving half of the maximal effect.

29 compounds from patent US20240307382A1, “MODULATORS OF THE INTEGRATED STRESS PATHWAY” (Calico Life Sciences LLC, priority 2017, published 2024) can be followed below.

The assay relates to HEK293T cells carrying the ATF4 luciferase reporter. Briefly: ATF4-Luc assay (ATF4 luciferase reporter, tunicamycin-treated cells). It is filed as cell-based. The conditions noted are these: Homo sapiens, HEK-293T, 1 μg/mL tunicamycin, 7 hours. As to the method:
In order to test exemplary compounds of the invention in a cellular context, a stable VWMD cell line was first constructed. The ATF4 reporter was prepared by fusing the human full-length ATF4 5′-UTR (NCBI Accession No. BC022088.2) in front of the firefly luciferase (FLuc) coding sequence lacking the initiator methionine as described in Sidrauski et al (eLife 2013). The construct was used to produce recombinant retroviruses using standard methods and the resulting viral supermatant was used to transduce ITEK293T cells, which were then subsequently selected with puromycin to generate a stable cell line.
HTEK293T cells carrying the ATF4 luciferase reporter were plated on polylysine coated 384-well plates (Greiner Bio-one) at 30,000 cells per well. Cells were treated the next day with 1 μg/mL tunicamycin and 200 nM of a compound of Formula (I) for 7 hours. Luminescence was measured using One Glo (Promega) as specified by the manufacturer. Cells were maintained in DMEM with L-glutamine supplemented with 10% heat-inactivated FBS (Gibco) and Antibiotic-Antimycotic solution (Gibco).
Table 2 below summarizes the EC50 data obtained using the ATF4-Luc assay for exemplary compounds of the invention.
For `O=C(COc1ccc(Cl)c(F)c1)NC12CC(NC(=O)c3cc4c(cn3)CCCC4)(C1)C2` [Compound 972, N-{3-[2-(4-chloro-3-fluorophenoxy)acetamido]bicyclo[1.1.1]pentan-1-yl}-5,6,7,8-tetrahydroisoquinoline-3-carboxamide], the EC50 is 0.05 to 0.25 µM.

`O=C(COc1ccc(Cl)c(F)c1)NC12CCC(NC(=O)c3cnc4cc(C(F)(F)F)ccc4n3)(CC1)C[C@@H]2O` [Compound 973, N-{(3S)-4-[2-(4-chloro-3-fluorophenoxy)acetamido]-3-hydroxybicyclo[2.2.2]octan-1-yl}-6-(trifluoromethyl)quinoxaline-2-carboxamide]: the EC50 was < 0.05 µM. The figure for `CN(C)Cc1ccnc(C(=O)NC23CCC(NC(=O)COc4ccc(Cl)c(F)c4)(CC2)CC3)c1` [Compound 974, N-{4-[2-(4-chloro-3-fluorophenoxy)acetamido]bicyclo[2.2.2]octan-1-yl}-4-[(dimethylamino)methyl]pyridine-2-carboxamide] is > 2 µM; for `NCc1ccnc(C(=O)NC23CCC(NC(=O)COc4ccc(Cl)c(F)c4)(CC2)CC3)c1` [Compound 975, 4-(aminomethyl)-N-{4-[2-(4-chloro-3-fluorophenoxy)acetamido]bicyclo[2.2.2]octan-1-yl}pyridine-2-carboxamide] it is < 0.05 µM. For `O=C(COc1ccc(Cl)c(F)c1)NC12CCC(NC(=O)c3cc4cccn4cn3)(CC1)C[C@@H]2O` [Compound 976, N-{(3S)-4-[2-(4-chloro-3-fluorophenoxy)acetamido]-3-hydroxybicyclo[2.2.2]octan-1-yl}pyrrolo[1,2-c]pyrimidine-3-carboxamide] the value was 0.05 to 0.25 µM.

Take `O=C(COc1ccc(Cl)c(F)c1)NC12CCC(NC(=O)c3ccnc(CO)c3)(CC1)CC2` [Compound 977, N-{4-[2-(4-chloro-3-fluorophenoxy)acetamido]bicyclo[2.2.2]octan-1-yl}-2-(hydroxymethyl)pyridine-4-carboxamide]: the EC50 is > 2 µM. The figure for `CC(C)(C)OC(=O)NCc1ccnc(C(=O)NC23CCC(NC(=O)COc4ccc(Cl)c(F)c4)(CC2)CC3)c1` [Compound 978, tert-butyl {[2-({4-[2-(4-chloro-3-fluorophenoxy)acetamido]bicyclo[2.2.2]octan-1-yl}carbamoyl)pyridin-4-yl]methyl}carbamate] is > 2 µM; for `CCc1cnc(C(=O)NC23CCC(NC(=O)COc4ccc(Cl)c(F)c4)(CC2)CC3)cn1` [Compound 979, N-{4-[2-(4-chloro-3-fluorophenoxy)acetamido]bicyclo[2.2.2]octan-1-yl}-5-ethylpyrazine-2-carboxamide] it is > 2 µM; for `O=C(COc1ccc(Cl)c(Cl)c1)NC12CCC(NC(=O)c3ccc(C(F)F)cn3)(CC1)CC2` [Compound 980, N-{4-[2-(3,4-dichlorophenoxy)acetamido]bicyclo[2.2.2]octan-1-yl}-5-(difluoromethyl)pyridine-2-carboxamide] it is 0.05 to 0.25 µM. As to `O=C(COc1ccc(Cl)c(F)c1)NC12CCC(NC(=O)c3cccc(CO)c3)(CC1)CC2` [Compound 981, N-{4-[2-(4-chloro-3-fluorophenoxy)acetamido]bicyclo[2.2.2]octan-1-yl}-3-(hydroxymethyl)benzamide], the EC50 is 0.25 to 1 µM.

Take `O=C(COc1ccc(Cl)c(F)c1)NC12CCC(NC(=O)c3cccc(O)c3)(CC1)CC2` [Compound 982, N-{4-[2-(4-chloro-3-fluorophenoxy)acetamido]bicyclo[2.2.2]octan-1-yl}-3-hydroxybenzamide]: the EC50 was in the range of 0.25 to 1 µM. Turning to `O=C(COc1ccc(Cl)c(F)c1)NC12CCC(NC(=O)c3cc(C(F)F)no3)(CC1)CC2` [Compound 983, N-{4-[2-(4-chloro-3-fluorophenoxy)acetamido]bicyclo[2.2.2]octan-1-yl}-3-(difluoromethyl)-1,2-oxazole-5-carboxamide], the concentration for a half-maximal effect (EC50) lay in the range of 0.25 to 1 µM.

Consider `O=C(COc1ccc(Cl)c(F)c1)NC12CCC(NC(=O)c3ccc4c(c3)OC(F)(F)O4)(CC1)C[C@@H]2O` [Compound 984, N-{(3S)-4-[2-(4-chloro-3-fluorophenoxy)acetamido]-3-hydroxybicyclo[2.2.2]octan-1-yl}-2,2-difluoro-2H-1,3-benzodioxole-5-carboxamide], for which the EC50 is < 0.05 µM. For the compound `O=C(COc1ccc(Cl)c(Cl)c1)NC12CCC(NC(=O)c3ccc4c(c3)OC(F)(F)O4)(CC1)C[C@@H]2O` [Compound 985, N-{(3S)-4-[2-(3,4-dichlorophenoxy)acetamido]-3-hydroxybicyclo[2.2.2]octan-1-yl}-2,2-difluoro-2H-1,3-benzodioxole-5-carboxamide], the EC50 was < 0.05 µM. The figure for `O=C(COc1ccc(Cl)c(F)c1)NC12CCC(NC(=O)c3cnc(C(F)F)cn3)(CC1)C[C@@H]2O` [Compound 986, N-{(3S)-4-[2-(4-chloro-3-fluorophenoxy)acetamido]-3-hydroxybicyclo[2.2.2]octan-1-yl}-5-(difluoromethyl)pyrazine-2-carboxamide] is < 0.05 µM. `O=C(COc1ccc(Cl)c(Cl)c1)NC12CCC(NC(=O)c3ccc(C(F)F)nc3)(CC1)C[C@@H]2O` [Compound 987, N-{(3S)-4-[2-(3,4-dichlorophenoxy)acetamido]-3-hydroxybicyclo[2.2.2]octan-1-yl}-6-(difluoromethyl)pyridine-3-carboxamide]: the EC50 was < 0.05 µM. For `O=C(COc1ccc(Cl)c(F)c1)NC12CCC(NC(=O)c3ccc(C(F)F)nc3)(CC1)C[C@@H]2O` [Compound 988, N-{(3S)-4-[2-(4-chloro-3-fluorophenoxy)acetamido]-3-hydroxybicyclo[2.2.2]octan-1-yl}-6-(difluoromethyl)pyridine-3-carboxamide] the value was 0.05 to 0.25 µM; for `O=C(COc1ccc(Cl)c(F)c1)NC12CCC(NC(=O)c3cnc(C4CC4)o3)(CC1)CC2` [Compound 989, N-{4-[2-(4-chloro-3-fluorophenoxy)acetamido]bicyclo[2.2.2]octan-1-yl}-2-cyclopropyl-1,3-oxazole-5-carboxamide], 0.25 to 1 µM. Consider `O=C(COc1ccc(Cl)c(Cl)c1)NC12CCC(NC(=O)c3ccc(C(F)F)cn3)(CC1)C[C@@H]2O` [Compound 990, N-{(3S)-4-[2-(3,4-dichlorophenoxy)acetamido]-3-hydroxybicyclo[2.2.2]octan-1-yl}-5-(difluoromethyl)pyridine-2-carboxamide], for which the EC50 was < 0.05 µM. For `O=C(COc1ccc(Cl)c(Cl)c1)NC12CCC(NC(=O)c3cc(CO)ccn3)(CC1)CC2` [Compound 991, N-{4-[2-(3,4-dichlorophenoxy)acetamido]bicyclo[2.2.2]octan-1-yl}-4-(hydroxymethyl)pyridine-2-carboxamide] the value was < 0.05 µM. The figure for `COCc1cncc(C(=O)NC23CCC(NC(=O)COc4ccc(Cl)c(Cl)c4)(CC2)CC3)c1` [Compound 992, N-{4-[2-(3,4-dichlorophenoxy)acetamido]bicyclo[2.2.2]octan-1-yl}-5-(methoxymethyl)pyridine-3-carboxamide] is 0.05 to 0.25 µM; for `O=C(COc1ccc(Cl)c(Cl)c1)NC12CCC(NC(=O)c3ccccn3)(CC1)CC2` [Compound 993, N-{4-[2-(3,4-dichlorophenoxy)acetamido]bicyclo[2.2.2]octan-1-yl}pyridine-2-carboxamide] it is 0.05 to 0.25 µM. For `O=C(COc1ccc(Cl)c(Cl)c1)NC12CCC(NC(=O)c3cccnc3)(CC1)CC2` [Compound 994, N-{4-[2-(3,4-dichlorophenoxy)acetamido]bicyclo[2.2.2]octan-1-yl}pyridine-3-carboxamide] the value was 0.25 to 1 µM; for `O=C(COc1ccc(Cl)c(F)c1)NC12CCC(NC(=O)c3cc(CO)ccn3)(CC1)CC2` [Compound 995, N-{4-[2-(4-chloro-3-fluorophenoxy)acetamido]bicyclo[2.2.2]octan-1-yl}-4-(hydroxymethyl)pyridine-2-carboxamide], < 0.05 µM; for `O=C(COc1ccc(Cl)c(F)c1)NC12CCC(NC(=O)c3ccc(OC(F)(F)F)nc3)(CC1)CC2` [Compound 996, N-{4-[2-(4-chloro-3-fluorophenoxy)acetamido]bicyclo[2.2.2]octan-1-yl}-6-(trifluoromethoxy)pyridine-3-carboxamide], > 2 µM. As for `O=C(COc1ccc(Cl)c(F)c1)NC12CCC(NC(=O)c3ccc(OC(F)(F)F)cn3)(CC1)CC2` [Compound 997, N-{4-[2-(4-chloro-3-fluorophenoxy)acetamido]bicyclo[2.2.2]octan-1-yl}-5-(trifluoromethoxy)pyridine-2-carboxamide], the EC50 was in the range of 0.05 to 0.25 µM. As for `O=C(COc1ccc(Cl)c(F)c1)NC12CCC(NC(=O)c3ccc4cc(F)ccc4n3)(CC1)C[C@@H]2O` [Compound 998, N-{(3S)-4-[2-(4-chloro-3-fluorophenoxy)acetamido]-3-hydroxybicyclo[2.2.2]octan-1-yl}-6-fluoroquinoline-2-carboxamide], the EC50 is < 0.05 µM.

`O=C(COc1ccc(Cl)c(Cl)c1)NC12CCC(NC(=O)c3ccc4cc(F)ccc4n3)(CC1)C[C@@H]2O` [Compound 999, N-{(3S)-4-[2-(3,4-dichlorophenoxy)acetamido]-3-hydroxybicyclo[2.2.2]octan-1-yl}-6-fluoroquinoline-2-carboxamide]: the EC50 is < 0.05 µM.

With `O=C(COc1ccc(Cl)c(Cl)c1)NC12CCC(NC(=O)c3ccc(C(F)(F)F)o3)(CC1)C[C@@H]2O` [Compound 1000, N-{(3S)-4-[2-(3,4-dichlorophenoxy)acetamido]-3-hydroxybicyclo[2.2.2]octan-1-yl}-5-(trifluoromethyl)furan-2-carboxamide], the EC50 was < 0.05 µM.
